Measured values published in patent publication US11452727B2, “Combination therapy for treating cancer” (Epizyme, Inc., priority 2017, dated 2022).

How the values were obtained:
Assay in all cases: In vitro combination study with tazemetostat, cell proliferation (Cell Titer Glo)
[1] = tested on: NCI-H1299; details: 7 days tazemetostat pre-treatment, 6 days co-treatment with second agent
[2] = tested on: HCC827; details: 7 days tazemetostat pre-treatment, 6 days co-treatment with second agent
Procedure: (§1) Initial proliferation studies were performed to determine the IC50 of tazemetostat in each cell line. For the screen, tazemetostat was used at concentrations bracketed around the IC50 value. If 50% inhibitory concentration was not reached then tazemetostat was tested starting at 10 μM.
(§2) In order to study the effect of dual combination of tazemetostat and a second agent on cell proliferation, cells in log-linear phase growth rate were pre-treated with various concentrations of tazemetostat or DMSO for 7 days in flasks, plated in 384-well plates in the absence of compounds and co-treated on day 8 with tazemetostat or DMSO and the second agent serially diluted for additional 6 days (as depicted in FIG. 1). On day 15, plates were developed for endpoint analysis using Cell Titer Glo to measure ATP content, which was used as an indicator of cell viability. DMSO concentration was kept constant throughout the assay at 0.15% v/v.
(§3) NCI-H1573 was cultured in DMEM: F12 Medium containing the following components: 0.02 mg/ml insulin, 0.01 mg/ml transferrin, 25 nM sodium selenite, 50 nM Hydrocortisone, 1 ng/ml Epidermal Growth Factor, 0.01 mM ethanolamine, 0.01 mM phosphorylethanolamine, 100 pM triiodothyronine, 0.5% (w/v) bovine serum albumin, 0.5 mM sodium pyruvate, 4.5 mM L-glutamine and 1% v/v Pen/Strep.

[3] = tested on: NCI-H2030; details: 7 days tazemetostat pre-treatment, 6 days co-treatment with second agent
Procedure: as §1, §2

[4] = tested on: NCI-H1993; details: 7 days tazemetostat pre-treatment, 6 days co-treatment with second agent
Procedure: as §1, §2

[5] = tested on: NCI-H1703; details: 7 days tazemetostat pre-treatment, 6 days co-treatment with second agent
Procedure: as §1, §2

[6] = tested on: NCI-H2110; details: 7 days tazemetostat pre-treatment, 6 days co-treatment with second agent
Procedure: as §1, §2

[7] = tested on: NCI-H522; details: 7 days tazemetostat pre-treatment, 6 days co-treatment with second agent
Procedure: as §1, §2

[8] = tested on: NCI-H1793; details: 7 days tazemetostat pre-treatment, 6 days co-treatment with second agent
Procedure: as §1, §2, §3

[9] = tested on: NCI-H661; details: 7 days tazemetostat pre-treatment, 6 days co-treatment with second agent
[10] = tested on: NCI-H460; details: 7 days tazemetostat pre-treatment, 6 days co-treatment with second agent
[11] = tested on: A549; details: 7 days tazemetostat pre-treatment, 6 days co-treatment with second agent
[12] = tested on: NCI-H838; details: 7 days tazemetostat pre-treatment, 6 days co-treatment with second agent
Procedure: as §1, §2, §3

[13] = tested on: NCI-H2122; details: 7 days tazemetostat pre-treatment, 6 days co-treatment with second agent
[14] = tested on: NCI-H1573; details: 7 days tazemetostat pre-treatment, 6 days co-treatment with second agent
Procedure: as §1, §2, §3

[15] = tested on: A427; details: A427; 7 days tazemetostat pre-treatment, 6 days co-treatment with second agent
[16] = tested on: Calu-3; details: 7 days tazemetostat pre-treatment, 6 days co-treatment with second agent
Procedure: as §1, §2, §3

[17] = tested on: NCI-H23; details: 7 days tazemetostat pre-treatment, 6 days co-treatment with second agent
Procedure: as §1, §2
All cell lines were obtained from American Type Culture Collection (ATCC; Rockville, Md.). […] A427, Calu-3, Calu-6 cell lines were cultured in EMEM+10% Fetal bovine serum (FBS)+1% v/v Penicillin/Streptomycin (P/S).

[18] = tested on: Calu-6; details: 7 days tazemetostat pre-treatment, 6 days co-treatment with second agent
Procedure: as §1, §2

Compound | combinatorial effect with tazemetostat (Loewe volume class) [1] | combinatorial effect with tazemetostat (Loewe volume class) [2] | combinatorial effect with tazemetostat (Loewe volume class) [3] | combinatorial effect with tazemetostat (Loewe volume class) [4] | combinatorial effect with tazemetostat (Loewe volume class) [5] | combinatorial effect with tazemetostat (Loewe volume class) [6] | combinatorial effect with tazemetostat (Loewe volume class) [7] | combinatorial effect with tazemetostat (Loewe volume class) [8] | combinatorial effect with tazemetostat (Loewe volume class) [9] | combinatorial effect with tazemetostat (Loewe volume class) [10] | combinatorial effect with tazemetostat (Loewe volume class) [11] | combinatorial effect with tazemetostat (Loewe volume class) [12] | combinatorial effect with tazemetostat (Loewe volume class) [13] | combinatorial effect with tazemetostat (Loewe volume class) [14] | combinatorial effect with tazemetostat (Loewe volume class) [15] | combinatorial effect with tazemetostat (Loewe volume class) [16] | combinatorial effect with tazemetostat (Loewe volume class) [17] | combinatorial effect with tazemetostat (Loewe volume class) [18]
C=CC(=O)Nc1cc(Nc2nccc(-c3cn(C)c4ccccc34)n2)c(OC)cc1N(C)CCN(C)C [AZD9291] | Add. (A value between −1 and 1 denoted “additivity”) | Add. (A value between −1 and 1 denoted “additivity”) | Add. (A value between −1 and 1 denoted “additivity”) | Add. (A value between −1 and 1 denoted “additivity”) | Add. (A value between −1 and 1 denoted “additivity”) | Syn. (Loewe volumes greater than 1 denoted “synergy”) | Syn. (Loewe volumes greater than 1 denoted “synergy”) | Syn. (Loewe volumes greater than 1 denoted “synergy”) | Anta. (volumes <−1 denoted “antagonism”) | Add. (A value between −1 and 1 denoted “additivity”) | Add. (A value between −1 and 1 denoted “additivity”) | Syn. (Loewe volumes greater than 1 denoted “synergy”) | Anta. (volumes <−1 denoted “antagonism”) | Add. (A value between −1 and 1 denoted “additivity”) | Anta. (volumes <−1 denoted “antagonism”) | Syn. (Loewe volumes greater than 1 denoted “synergy”) | Add. (A value between −1 and 1 denoted “additivity”) | 
CNC(=O)Cn1cc(-c2ccc3c(c2)[C@H](F)C[C@]32NC(=O)N(CC(=O)N(Cc3ccc(F)cc3)[C@@H](C)C(F)(F)F)C2=O)cn1 [Cmpd H] |  | Add. (A value between −1 and 1 denoted “additivity”) |  | Syn. (Loewe volumes greater than 1 denoted “synergy”) |  | Add. (A value between −1 and 1 denoted “additivity”) |  | Syn. (Loewe volumes greater than 1 denoted “synergy”) | Anta. (volumes <−1 denoted “antagonism”) | Syn. (Loewe volumes greater than 1 denoted “synergy”) |  | Add. (A value between −1 and 1 denoted “additivity”) | Add. (A value between −1 and 1 denoted “additivity”) | Anta. (volumes <−1 denoted “antagonism”) | Syn. (Loewe volumes greater than 1 denoted “synergy”) | Syn. (Loewe volumes greater than 1 denoted “synergy”) | Anta. (volumes <−1 denoted “antagonism”) | Add. (A value between −1 and 1 denoted “additivity”)
C#Cc1cccc(Nc2ncnc3cc(OCCOC)c(OCCOC)cc23)c1 [Erlotinib, erlotinib] |  | Syn. (Loewe volumes greater than 1 denoted “synergy”) |  |  |  |  |  |  |  |  |  |  |  |  |  |  |  | 
C[C@]12C=CC(=O)C=C1CC[C@@H]1[C@@H]2[C@@H](O)C[C@@]2(C)[C@H]1CC[C@]2(O)C(=O)CO [Prednisolone, prednisolone] |  | Anta. (volumes <−1 denoted “antagonism”) | No eff. | No eff. | No eff. | No eff. | No eff. | Syn. (Loewe volumes greater than 1 denoted “synergy”) | No eff. | Add. (A value between −1 and 1 denoted “additivity”) | Add. (A value between −1 and 1 denoted “additivity”) | No eff. | Anta. (volumes <−1 denoted “antagonism”) | Syn. (Loewe volumes greater than 1 denoted “synergy”) | Add. (A value between −1 and 1 denoted “additivity”) | No eff. | No eff. | Syn. (Loewe volumes greater than 1 denoted “synergy”)
C[C@]1(c2nc3c(C(N)=O)cccc3[nH]2)CCCN1 [Veliparib, veliparib] |  | Syn. (Loewe volumes greater than 1 denoted “synergy”) | No eff. | No eff. | No eff. | No eff. | No eff. | No eff. | No eff. | Add. (A value between −1 and 1 denoted “additivity”) | No eff. | No eff. | Anta. (volumes <−1 denoted “antagonism”) | Syn. (Loewe volumes greater than 1 denoted “synergy”) | Syn. (Loewe volumes greater than 1 denoted “synergy”) | No eff. | No eff. | No eff.
CCCS(=O)(=O)Nc1ccc(F)c(C(=O)c2c[nH]c3ncc(-c4ccc(Cl)cc4)cc23)c1F [Vemurafenib, vemurafenib] |  | No eff. |  |  |  |  |  |  |  |  |  |  |  |  |  |  |  | 
